The text below walks through data of patent US6867284B1, “Peptide inhibitors of hepatitis C virus NS3 protease” (Istituto di Ricerche di Biologia Molecolare P. Angeletti …, priority 1998, dated 2005).

Numbered stars: 1 amine (or outer) side, 2 acyl side, 3 side chain; on linkers, the order of the positions; unused ones are H or OH. Square brackets hold non-standard residues; d marks the D form. Peptide text beside a SMILES is read from it. * marks the point of attachment. ξ: configuration not given here. ξAbu(4,4-F2)ψ(COCO) = O=C(C(=O)[*:2])C(CC(F)F)N[*:1]; Dip = N[C@H](C(=O)O)C(c1ccccc1)c1ccccc1; X8 = O=C(c1nc2ccccc2o1)C(CC(F)F)N*; Cha = N[C@@H](CC1CCCCC1)C(=O)O; X7 = O=C(c1nccs1)C(CC(F)F)N*

For the first assay, the target named is T1, HCV NS3 protease (Hepatitis C virus genotype 1b, UniProt P26663).
T1 construct: an NS3/4A complex comprising the NS3 protease domain
T1 sequence (P26663 1027-1208, other chains not shown): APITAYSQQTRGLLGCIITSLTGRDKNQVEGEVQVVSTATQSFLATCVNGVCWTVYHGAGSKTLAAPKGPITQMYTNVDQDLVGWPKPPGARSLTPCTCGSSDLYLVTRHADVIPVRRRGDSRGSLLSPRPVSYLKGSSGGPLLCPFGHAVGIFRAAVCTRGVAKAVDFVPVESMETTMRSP
Description: Inhibition of NS3 protease (HPLC cleavage assay, NS3/4A complex with Pep4AK, substrate peptide 4AB). The class given is biochemical. Conditions: Table 1 hexapeptides, cells printed in nM; read-out: IC50. The protocol: Buffer solutions containing 80 μM Pep4AK were preincubated for 10 minutes with 10-200 nM protease and reactions were started by addition of substrate. Six duplicate data points at different substrate concentrations were used to calculate kinetic parameters. Incubation times were chosen in order to obtain <7% substrate conversion and reactions were stopped by addition of 40 μl 1% TFA. Cleavage of peptide substrates was determined by HPLC using a Merck-Hitachi chromatograph equipped with an autosampler. 80 μl samples were injected on a Lichrospher C18 reversed phase cartridge column (4×74 mm, 5 μm, Merck) and fragments were separated using a 10-40% acetonitrile gradient a 5%/min using a flow rate of 2.5 ml/min. Peak detection was accomplished by monitoring both the absorbance at 220 nm and tyrosine fluorescence (λex=260 nm, λem=305 nm). Cleavage products were quantitated by integration of chromatograms with respect to appropriate standards. Kinetic parameters were calculated from nonlinear least-squares fit of initial rates as a function of substrate concentration with the help of a Kaleidagraph software, assuming Michaelis-Menten kinetics.
Ki values of peptide inhibitors were calculated from substrate titration experiments performed in the presence of increasing amounts of inhibitor. Experimental data sets were simultaneously fitted to eq.1 using a multicurve fit macro with the help of a Sigmaplot software: V=(VmaxS)/(Km(1+[…])+S); (eq.1)
Alternatively, Ki values were derived from IC50 values, calculated using a four-parameter logistic function, according to eq.2: IC50−(1+S/Km)Ki (eq.2)
Regarding `CC(=O)N[C@@H](CC(=O)O)C(=O)N[C@@H](CCC(=O)O)C(=O)N[C@H](C(=O)N[C@@H](CCC(=O)O)C(=O)N[C@@H](CC1CCCCC1)C(=O)NC(C=O)CC(F)F)C(c1ccccc1)c1ccccc1` (single isomer, unassigned) [Compound 1c (L)], the IC50 is 0.5 nM.

Consider `CC(=O)N[C@@H](CC(=O)O)C(=O)N[C@@H](CCC(=O)O)C(=O)N[C@H](C(=O)N[C@@H](CCC(=O)O)C(=O)N[C@@H](CC1CCCCC1)C(=O)NC(CC(F)F)C(=O)C(=O)O)C(c1ccccc1)c1ccccc1` (some centres unmarked) [Compound 1d] (Ac-DE[Dip]E[Cha]-{ξAbu(4,4-F2)ψ(COCO)}), for which the IC50 was found to be 0.4 nM. In the case of `CC(=O)N[C@@H](CC(=O)O)C(=O)N[C@@H](CCC(=O)O)C(=O)N[C@H](C(=O)N[C@@H](CCC(=O)O)C(=O)N[C@@H](CC1CCCCC1)C(=O)NC(CC(F)F)C(=O)c1nc2ccccc2o1)C(c1ccccc1)c1ccccc1` (some centres unmarked) [Compound 1j] (Ac-DE[Dip]E[Cha]-X8), the IC50 was 600 nM.

Still in this assay, the particulars now being: Table 1 hexapeptides, cells printed in μM; read-out: IC50.
For `CC(=O)N[C@@H](CC(=O)O)C(=O)N[C@@H](CCC(=O)O)C(=O)N[C@H](C(=O)N[C@@H](CCC(=O)O)C(=O)N[C@@H](CC1CCCCC1)C(=O)NC(CC(F)F)C(=O)c1nccs1)C(c1ccccc1)c1ccccc1` (some centres unmarked) [Compound 1k] (Ac-DE[Dip]E[Cha]-X7), the IC50 was 1000 nM.

The same assay, now with this note: Table 2 tetrapeptides and tripeptides; read-out: IC50.
On to `CC(C)C[C@H](NC(=O)[C@@H](NC(=O)OC(C)(C)C)C(C)C)C(=O)NC(CC(F)F)C(=O)C(=O)O` (some centres unmarked) [Compound 5d], for which the IC50 stood at 500 nM. As to `CCC(C)[C@H](NC(=O)OCc1ccccc1)C(=O)N[C@@H](CC)C(=O)NC(CC(F)F)C(=O)C(=O)O` (some centres unmarked) [Compound 3e], the IC50 amounted to 3000 nM. On to `CCC(C)[C@H](NC(=O)OCc1ccc(C(=O)OC)cc1)C(=O)N[C@@H](CC(C)C)C(=O)NC(CC(F)F)C(=O)C(=O)O` (some centres unmarked) [Compound 4c], for which the IC50 stood at 1700 nM. On to `CC(C)C[C@H](NC(=O)[C@H](CCC(N)=O)NC(=O)OC(C)(C)C)C(=O)NC(CC(F)F)C(=O)C(=O)O` (some centres unmarked) [Compound 5k], for which the IC50 was determined as 2100 nM.

On to `CC(C)C[C@H](NC(=O)[C@H](CCC(=O)OCc1ccccc1)NC(=O)OC(C)(C)C)C(=O)NC(CC(F)F)C(=O)C(=O)O` (some centres unmarked) [Compound 5i], for which the IC50 turned out to be 5800 nM. In the case of `CCC(C)[C@H](NC(=O)OCc1ccccc1)C(=O)N[C@@H](Cc1ccccc1)C(=O)NC(CC(F)F)C(=O)C(=O)O` (some centres unmarked) [Compound 3f], the IC50 turned out to be 3000 nM.

Take `CC(C)COC(=O)N[C@@H](CCC(=O)O)C(=O)N[C@@H](CC(C)C)C(=O)NC(C=O)CC(F)F` (some centres unmarked) [Compound 6a]: the IC50 came out at 26000 nM.

As for `CCC(C)[C@H](NC(=O)OCC1c2ccccc2-c2ccccc21)C(=O)N[C@@H](CC(C)C)C(=O)NC(CC(F)F)C(=O)C(=O)O` (some centres unmarked) [Compound 4e], the IC50 is 7800 nM.

Turning to `CC[C@@H](C)[C@H](NC(=O)OC(C)(C)C)C(=O)N[C@@H](CC(C)C)C(=O)NC(CC(F)F)C(=O)C(=O)O` (some centres unmarked) [Compound 5a], the IC50 worked out at 700 nM. On to `CC(=O)N[C@H](C(=O)N[C@@H](CCC(=O)O)C(=O)N[C@@H](CC1CCCCC1)C(=O)NC(CC(F)F)C(=O)C(=O)O)C(c1ccccc1)c1ccccc1` (some centres unmarked) [Compound 2a], for which the concentration for half-maximal inhibition (IC50) amounted to 10000 nM.

Staying with this assay, now noted: Table 3 capped dipeptide keto acids; read-out: IC50.
For the compound `CC(C)C[C@H](NC(=O)Cc1cccs1)C(=O)NC(CC(F)F)C(=O)C(=O)O` (single isomer, unassigned) [Compound 8f], the IC50 came out at 42000 nM.

On to `CC(C)C[C@H](NC(=O)[C@H](O)c1ccc(Cl)cc1)C(=O)NC(CC(F)F)C(=O)C(=O)O` (mixture of isomers) [Compound 8q], for which the IC50 came out at 25000 nM. On the same count and under the same terms, under `CC(C)C[C@H](NC(=O)[C@H](O)c1ccc(C(F)(F)F)cc1)C(=O)NC(CC(F)F)C(=O)C(=O)O` (mixture of isomers) [Compound 8o] stands 56000 nM. With `CC(C)C[C@H](NC(=O)C1CCCCC1C(=O)O)C(=O)NC(CC(F)F)C(=O)C(=O)O` (single isomer, unassigned) [Compound 8a], the IC50 amounted to 32000 nM. Consider `CC(C)C[C@H](NC(=O)C(Oc1cccc(C(=O)O)c1)c1ccccc1)C(=O)NC(CC(F)F)C(=O)C(=O)O` (single isomer, unassigned) [Compound 8h], for which the IC50 turned out to be 6000 nM. Consider `CC(C)C[C@H](NC(=O)Cc1ccc(CC(=O)O)cc1)C(=O)NC(CC(F)F)C(=O)C(=O)O` (mixture of isomers) [Compound 8d], for which the IC50 amounted to 7000 nM. Take `CC(C)C[C@H](NC(=O)CC1(CC(=O)O)CCCC1)C(=O)NC(CC(F)F)C(=O)C(=O)O` (single isomer, unassigned) [Compound 7l]: the IC50 amounted to 1000 nM. With `CC(C)C[C@H](NC(=O)Cc1ccccc1C(=O)O)C(=O)NC(CC(F)F)C(=O)C(=O)O` (single isomer, unassigned) [Compound 8e], the IC50 was 13000 nM.

With `CC(C)C[C@H](NC(=O)CC(C)(C)CC(=O)O)C(=O)NC(CC(F)F)C(=O)C(=O)O` (mixture of isomers) [Compound 7e], the IC50 was 4000 nM. As for `CC(C)C[C@H](NC(=O)OCc1ccccc1)C(=O)NC(CC(F)F)C(=O)C(=O)O` (single isomer, unassigned) [Compound 7a], the IC50 came to 74000 nM. In the case of `CCCC(CCC)C(=O)N[C@@H](CC(C)C)C(=O)NC(CC(F)F)C(=O)C(=O)O` (mixture of isomers) [Compound 7c], the IC50 stood at 78000 nM. Take `COc1ccc(C(Oc2ccccc2)C(=O)N[C@@H](CC(C)C)C(=O)NC(CC(F)F)C(=O)C(=O)O)cc1` (mixture of isomers) [Compound 8k]: the IC50 amounted to 72000 nM.

The assay is the same for the next values; noted with them: Table 4 indoline keto acids and related; read-out: IC50.
Regarding `CCC(CC)CC1(C(=O)N[C@@H](CC(C)C)C(=O)NC(CC(F)F)C(=O)C(=O)O)Cc2ccccc2N1` (single isomer, unassigned) [Compound 9g], the IC50 amounted to 15000 nM. `CC(C)C[C@H](NC(=O)C1(Cc2ccccc2Cl)Cc2ccccc2N1)C(=O)NC(CC(F)F)C(=O)C(=O)O` (single isomer, unassigned) [Compound 9q]: the IC50 turned out to be 5000 nM. Regarding `CC(C)C[C@H](NC(=O)C1Cc2ccc(OCC(=O)O)cc2N1)C(=O)NC(CC(F)F)C(=O)C(=O)O` (single isomer, unassigned) [Compound 10f], the IC50 worked out at 10000 nM.

As to `CCC(C)CC1(C(=O)N[C@@H](CC(C)C)C(=O)NC(CC(F)F)C(=O)C(=O)O)Cc2ccccc2N1` (mixture of isomers) [Compound 9h], the IC50 is 81000 nM. With `CC(C)C[C@H](NC(=O)C1(C2CCCCC2)Cc2ccccc2N1)C(=O)NC(CC(F)F)C(=O)C(=O)O` (mixture of isomers) [Compound 9k], the IC50 was found to be 69000 nM.

Turning to `CCCCC1(C(=O)NC(CC(C)C)C(=O)NC(CC(F)F)C(=O)C(=O)O)Cc2ccccc2N1` (mixture of isomers) [Compound 9b], the IC50 was found to be 87000 nM. Same read-out and setting: in the case of `CC(C)C[C@H](NC(=O)C1Cc2ccc(OC3CCCC3)cc2N1)C(=O)NC(CC(F)F)C(=O)C(=O)O` (single isomer, unassigned) [Compound 10e] it was 18000 nM; in that of `CC(C)C[C@H](NC(=O)C1(CC2CC2)Cc2ccccc2N1)C(=O)NC(CC(F)F)C(=O)C(=O)O` (single isomer, unassigned) [Compound 9i], 20000 nM; in that of `COCCOCC1(C(=O)N[C@@H](CC(C)C)C(=O)NC(CC(F)F)C(=O)C(=O)O)Cc2ccccc2N1` (mixture of isomers) [Compound 9m], 57000 nM.

Consider `CC(C)C[C@H](NC(=O)C1Cc2ccc(OC3CCS(=O)(=O)CC3)cc2N1)C(=O)NC(CC(F)F)C(=O)C(=O)O` (single isomer, unassigned) [Compound 10i], for which the IC50 was 30000 nM. Regarding `CC(C)C[C@H](NC(=O)C1(CC2CCCCC2)Cc2ccccc2N1)C(=O)NC(CC(F)F)C(=O)C(=O)O` (mixture of isomers) [Compound 9l], the IC50 stood at 31000 nM. On the same count and under the same terms, in the case of `CC(C)C[C@H](NC(=O)C1(CC2CCC2)Cc2ccccc2N1)C(=O)NC(CC(F)F)C(=O)C(=O)O` (mixture of isomers) [Compound 9j] it was 34000 nM.

For orientation: IC50 means the point on the concentration scale where inhibition reaches its midpoint.
